Test results as given in paper PMC6353801, “Enhanced Anti-diabetic Effect of Berberine Combined With Timosaponin B2 in Goto-Kakizaki Rats, Associated With Increased Variety and Exposure of Effective Substances Through Intestinal Absorption” (Frontiers in Pharmacology, 2019).
Several values for one entry are separate records, joined by “and”; a condition that tells them apart may be missing. Equal values may be shown once.

Tests used:
[1] = PK in systemic plasma of GK rats after repeated oral administration (day 35); assay type: in vivo, rat; settings: GK rats, systemic plasma; for increase in AUC on combination vs single treatment / increase in Cmax on combination vs single treatment: day 35; for Cmax / half-life / Tmax / AUC: male, GK, rat, po, mean ± SE, n = 8; for Cmax / half-life / Tmax: plasma; for half-life: read-out: T1/2 (converted); for Tmax: read-out: Tmax; for AUC: read-out: AUC
Experimental: Analyses were performed on a Shimadzu LCMS-8030 triple quadrupole system (Shimadzu Corp., Japan) equipped with an electrospray ionization source. Data processing was performed using Shimadzu LC–MS LabSolutions (version 5.42 SP4, Shimadzu, Japan). Chromatographic separation was carried out on a Waters CORTECS C18+ column (100 mm × 2.1 mm, 2.7 μm, Ireland) with a security guard C18+ column (5 mm × 2.1 mm, 2.7 μm, Ireland). […] The gradient elution was 85% B from 0 to 2.5 min, 85% B–83% B from 2.5 to 3.0 min, 83% B from 3.0 to 6.0 min, 83% B–40% B from 6.0 to 6.5 min, 40% B from 6.5 to 7.0 min, 40% B–85% B from 7.0 to 7.2 min, and 85% B from 7.2 to 12 min. […] The optimized precursor-to-product ion pairs (collision energy) were in the positive mode as follows: m/z 579.20–255.15 (28 V) for TB-2 (at 4.1 min) and timosaponin A3 (at 6.1 min) and 271.50–154.70 (25 V) for tolbutamide (IS, at 5.8 min). […] If the concentrations of the compounds were over the linear range, the relevant samples were diluted with blank matrix by a factor of 10. […] Four-week-old male GK rats were fed a high-fat diet, and age-matched non-diabetic Wistar rats were fed standard chow as the control group. Under these dietary conditions, blood glucose was estimated each week for 7 weeks in 12-h fasted rats using a portable glucometer (One Touch Sure Step Meter, Johnson & Johnson, United States) by drawing the blood from the tail vein. GK rats with fasting blood glucose levels (FBG) above 16.7 mM were considered as diabetic rats, and only uniformly diabetic rats were used in this study. […] All the drugs were suspended in 0.5% carboxymethylcellulose sodium (CMC-Na) solution for oral gavage (10 ml/kg) once per day (at 9:00) for 6 weeks. Simultaneously, the Wistar and vehicle groups received vehicle over the treatment period. Food consumption and body weight were measured every week throughout the experimental periods. Non-fasting blood glucose (NFBG) levels were determined by collecting blood samples from the tail vein (at 9:00), and FBG levels were determined after a 6-h fast (at 15:00) on days 0, 7, 14, 21, and 42. On day 28, an oral glucose tolerance test (OGTT) was performed after an overnight fast. […] On day 42, the rats were anesthetized with urethane (1.4 g/kg, dissolved in saline) after an overnight fast and were sacrificed to collect the liver, kidney, heart, and spleen. The organs were weighed after washing with saline and drying to calculate the organ coefficient, namely, the ratio between the weight of organs and the body in each rat. The liver samples were diluted with 3 volumes (0.5 g/1.5 ml) of saline and homogenized. The liver homogenates and plasma samples (100 μl) were precipitated with three volumes of acetonitrile (containing 10 μg/ml tolbutamide). […] Then, 100 μl of the original mobile phase was added, and the samples were vortexed for 5 min and centrifuged at 13,000 rpm at 4°C for 10 min. Finally, the supernatant was used for HPLC–QQQ–MS/MS analysis. A non-compartmental analysis was performed using WinNonlin software (Pharsight 6.2, Raleigh, NC, United States) to calculate the PK parameters. The significance of PK parameters in normal rats, generated by the sparse method in WinNonlin, was assessed with Welch’s unequal variances t-test. The significance of the other results was assessed using two-tailed Student’s t-tests. Statistical significance was defined as P < 0.05.

[2] = PK in portal vein plasma of Wistar rats (before hepatic clearance); settings: for AUC / Cmax / Tmax / half-life: male, Wistar, rat, po
[3] = Liver distribution in Wistar rats; settings: for increase in AUC on co-administration vs single treatment / increase in Cmax on co-administration vs single treatment / AUC ± SE / Cmax / Tmax / exposure (AUC) of metabolite as share of the exposure of BBR: Wistar rats; for increase in AUC on co-administration vs single treatment / increase in Cmax on co-administration vs single treatment / AUC ± SE / Cmax / half-life / Tmax / exposure (AUC) of metabolite as share of the exposure of BBR: liver; for AUC ± SE / Cmax / half-life / Tmax: n = 5; for Cmax / half-life / Tmax: male, Wistar, rat, po; for Cmax: Cmax ± SE; for half-life: T1/2, Wistar rats
[4] = PK in systemic plasma of Wistar rats (after hepatic clearance) and liver extraction ratio; settings: for ERliver (liver extraction ratio): (AUCpor−AUCsys)/AUCpor; for increase in AUC on co-administration vs single treatment / Tmax / AUC / Cmax / half-life / AUC ratio between M1 and BBR: systemic plasma; for Tmax: n = 5
GK rats = assay: Oral glucose tolerance test (OGTT) in GK rats on day 28; assay type: in vivo, rat; settings: after 4 weeks of treatment, glucose 2 g/kg oral
Experimental: Four-week-old male GK rats were fed a high-fat diet, and age-matched non-diabetic Wistar rats were fed standard chow as the control group. Under these dietary conditions, blood glucose was estimated each week for 7 weeks in 12-h fasted rats using a portable glucometer (One Touch Sure Step Meter, Johnson & Johnson, United States) by drawing the blood from the tail vein. GK rats with fasting blood glucose levels (FBG) above 16.7 mM were considered as diabetic rats, and only uniformly diabetic rats were used in this study. […] All the drugs were suspended in 0.5% carboxymethylcellulose sodium (CMC-Na) solution for oral gavage (10 ml/kg) once per day (at 9:00) for 6 weeks. Simultaneously, the Wistar and vehicle groups received vehicle over the treatment period. Food consumption and body weight were measured every week throughout the experimental periods. Non-fasting blood glucose (NFBG) levels were determined by collecting blood samples from the tail vein (at 9:00), and FBG levels were determined after a 6-h fast (at 15:00) on days 0, 7, 14, 21, and 42. On day 28, an oral glucose tolerance test (OGTT) was performed after an overnight fast. […] On day 42, the rats were anesthetized with urethane (1.4 g/kg, dissolved in saline) after an overnight fast and were sacrificed to collect the liver, kidney, heart, and spleen. The organs were weighed after washing with saline and drying to calculate the organ coefficient, namely, the ratio between the weight of organs and the body in each rat.

[5] = 33.3 mg/kg, day 35, oral BBR+TB-2 (66.7+33.3 mg/kg)
[6] = 66.7 mg/kg, day 35, oral BBR 66.7 mg/kg alone
[7] = single oral BBR 66.7 mg/kg alone
[8] = single oral BBR+TB-2 (66.7+33.3 mg/kg)
[9] = 33.3 mg/kg, single oral BBR+TB-2 (66.7+33.3 mg/kg)
[10] = 66.7 mg/kg, single oral BBR 66.7 mg/kg alone
[11] = Wistar rats, oral BBR 66.7 mg/kg alone
[12] = Wistar rats, oral BBR+TB-2 (100 mg/kg)
[13] = Wistar rats, TB-2+BBR treatments
[14] = male, Wistar, rat, plasma, po, 66.7 mg/kg, Tmax, Wistar rats, single oral BBR 66.7 mg/kg alone
[15] = male, Wistar, rat, po, 66.7 mg/kg
[16] = male, Wistar, rat, po, 100 mg/kg
[17] = male, Wistar, rat, po, 100 mg/kg, Tmax, Wistar rats, single oral BBR+TB-2 (100 mg/kg)

Structure (SMILES): COc1ccc2cc3[n+](cc2c1OC)CCc1cc2c(cc1-3)OCO2 [BBR, berberine]
- increase in AUC on combination vs single treatment [1]: 107%
- increase in Cmax on combination vs single treatment [1]: 695%
- Cmax [1, 5]: 42.2 ± 17.4 ng/mL
- half-life [1, 5]: 558 ± 150 min
- Tmax [1, 5]: 0.9 ± 0.1 h
- Cmax [1, 6]: 5.3 ± 0.4 ng/mL
- half-life [1, 6]: 1690 ± 702 min
- Tmax [1, 6]: 4.6 ± 1.5 h
- AUC [1, 5]: 155 ± 59.7 ng·h/mL
- AUC [1, 6]: 74.8 ± 3.5 ng·h/mL
- increase in AUC on co-administration vs single treatment ([2]; Wistar rats): 114%
- AUC ([2]; 66.7 mg/kg): 198 ± 22.2 ng·h/mL
- Cmax ([2]; 66.7 mg/kg): 63.1 ± 18.5 ng/mL
- Tmax ([2]; 66.7 mg/kg): 2 h
- half-life ([2]; 66.7 mg/kg): 588 min
- AUC ([2]; 100 mg/kg): 424 ± 60.5 ng·h/mL
- Cmax ([2]; 100 mg/kg): 145 ± 50.3 ng/mL
- Tmax ([2]; 100 mg/kg): 2 h
- half-life ([2]; 100 mg/kg): 630 min
- increase in AUC on co-administration vs single treatment [3]: didn’t elicit statistical significance
- increase in Cmax on co-administration vs single treatment [3]: 136%
- AUC ± SE [3, 7]: 3255.1 ± 247.5 h ∗ ng/g
- AUC ± SE [3, 8]: 4600.3 ± 645.1 h ∗ ng/g
- Cmax [3, 9]: 1880 ± 418 ng/g
- half-life [3, 9]: 414 min
- Tmax [3, 9]: 2 h
- Cmax [3, 10]: 795 ± 157 ng/g
- half-life [3, 10]: 888 min
- Tmax [3, 10]: 2 h
- improvement of levels on co-administration ([3]; normal rats, in the plasma and liver): 41–114%
- ERliver (liver extraction ratio) [4, 11]: 87.3%
- ERliver (liver extraction ratio) [4, 12]: 90.0%
- AUC in portal vein plasma, fold higher than in systemic plasma ([4]; Wistar rats, BBR treatments): 6.9 fold
- AUC in portal vein plasma, fold higher than in systemic plasma [4, 13]: 9.1 fold
- AUC in portal vein plasma, fold higher than in systemic plasma (discussion) ([4]; Wistar rats, single or combination treatments): approximately 10 fold
- increase in AUC on co-administration vs single treatment ([4]; Wistar rats): didn’t increase
- Tmax ([4]; Wistar rats, single oral BBR 66.7 mg/kg alone): 0.2 h
- Tmax [4, 14]: 0.167 h
- AUC [4, 15]: 25.1 ± 4.1 ng·h/mL
- Cmax [4, 15]: 11.1 ± 3.4 ng/mL
- half-life [4, 15]: 114 min
- AUC [4, 16]: 42.1 ± 11.7 ng·h/mL
- Cmax [4, 16]: 10.8 ± 3.9 ng/mL
- half-life [4, 16]: 138 min
- Tmax [4, 17]: 2 h
- decrease in the AUC of blood glucose in OGTT vs vehicle (GK rats): didn’t significantly decrease
- decrease of blood glucose levels in OGTT at 30 min vs vehicle (GK rats): 24%

Structure (SMILES): COc1ccc2cc3[n+](cc2c1O)CCc1cc2c(cc1-3)OCO2 [M1, Berberrubine]
- levels of M1 as share of the parent drug ([1]; BBR treatments): 75%
- levels of M1 as share of the parent drug ([1]; TB-2+BBR treatments): 61%
- increase in AUC on combination vs single treatment [1]: didn’t significantly increase
- increase in Cmax on combination vs single treatment [1]: didn’t significantly increase
- Cmax [1, 5]: 6.6 ± 2 ng/mL
- half-life [1, 5]: 1430 ± 444 min
- Tmax [1, 5]: 9.4 ± 1.2 h
- Cmax [1, 6]: 4.3 ± 1.7 ng/mL
- half-life [1, 6]: 6010 ± 5530 min
- Tmax [1, 6]: 10.4 ± 3.1 h
- AUC [1, 5]: 94.9 ± 26.4 ng·h/mL
- AUC [1, 6]: 56.3 ± 18.5 ng·h/mL
- increase in AUC on co-administration vs single treatment ([2]; Wistar rats): 89%
- increase in Cmax on co-administration vs single treatment ([2]; Wistar rats): 105%
- AUC ratio between M1 and BBR ([2]; Wistar rats, BBR treatments): 28.1%
- AUC ratio between M1 and BBR [2, 13]: 24.9%
- AUC ([2]; 66.7 mg/kg): 55.7 ± 3.5 ng·h/mL
- Cmax ([2]; 66.7 mg/kg): 3.5 ± 1 ng/mL
- Tmax ([2]; 66.7 mg/kg): 6 h
- half-life ([2]; 66.7 mg/kg): 582 min
- AUC ([2]; 100 mg/kg): 106 ± 6.2 ng·h/mL
- Cmax ([2]; 100 mg/kg): 7.2 ± 1.5 ng/mL
- Tmax ([2]; 100 mg/kg): 9 h
- half-life ([2]; 100 mg/kg): 420 min
- increase in AUC on co-administration vs single treatment [3]: 282%
- increase in Cmax on co-administration vs single treatment [3]: 109%
- exposure (AUC) of metabolite as share of the exposure of BBR ([3]; TB-2+BBR treatments): 77% and 77.5%
- AUC ± SE [3, 7]: 932.5 ± 155.4 h ∗ ng/g
- AUC ± SE [3, 8]: 3565.3 ± 256.7^∗∗∗ h ∗ ng/g
- exposure (AUC) of metabolite as share of the exposure of BBR ([3]; single treatment (On TB-2 treatments)): 29% and 28.6%
- Cmax [3, 9]: 238 ± 39.5 ng/g
- half-life [3, 9]: 252 min
- Tmax [3, 9]: 6 h
- Cmax [3, 10]: 114 ± 10.6 ng/g
- half-life [3, 10]: 276 min
- Tmax [3, 10]: 4 h
- ERliver (liver extraction ratio) [4, 11]: 81.9%
- ERliver (liver extraction ratio) [4, 12]: 81.3%
- AUC in portal vein plasma, fold higher than in systemic plasma ([4]; Wistar rats, BBR treatments): approximately fivefold
- AUC in portal vein plasma, fold higher than in systemic plasma [4, 13]: approximately fivefold
- increase in AUC on co-administration vs single treatment ([4]; Wistar rats): 95%
- AUC ratio between M1 and BBR ([4]; Wistar rats, BBR treatments): 40.2%
- AUC ratio between M1 and BBR [4, 13]: 46.8%
- Tmax [4, 14]: 6 h
- AUC [4, 15]: 10.1 ± 0.6 ng·h/mL
- Cmax [4, 15]: 1 ± 0.2 ng/mL
- half-life [4, 15]: 348 min
- AUC [4, 16]: 19.7 ± 2.9 ng·h/mL
- Cmax [4, 16]: 2 ± 0.2 ng/mL
- half-life [4, 16]: 114 min
- Tmax [4, 17]: 9 h
